The source of these data is US20080234233A1, “MEDICAMENT FOR TREATMENT OF NEURODEGENERATIVE DISEASES” (INSTITUTE OF MEDICINAL MOLECULAR DESIGN INC., priority 2002, published 2008).

In one experiment the test system is NF-κ B activation. Kind of experiment: Inhibitory activity of NF-κB activation, luciferase reporter assay under TNF-α stimulation in HepG2. Type of experiment: cell-based, human. The following applies: Drug concentration at 1 μg/mL; HepG2, TNF-α 40 ng/ml, 4 hours. As for the experimental part:
Measurement of Inhibitory Activity of NF-κB activation
Using a transfection reagent (Effectene; QIAGEN), the human hepatoma cell strain HepG2 was transfected with a plasmid (pNF κ B-Luc Reporter Plasmid; […]) integrated with an oligonucleotide having five tandem copies of NF-κ B binding sequences([…]) on a upstream region of firefly luciferase gene(Luc) according to the QIAGEN's protocol, and the cells were incubated for 6 to 24 hours. After addition of TNF-α (40 ng/ml) in the presence or absence of a test compound, the cells were incubated for 4 hours, and intracellular luciferase activity was measured by using PicaGene LT (TOYO INK MFG Co., Ltd.) and a chemical luminescence measurement apparatus ([…]luor Plus; TECAN). The inhibitory ratio was measured as a ratio relative to the value of the luciferase activity in the absence of the test compound.
For orientation: In a reporter assay the amount or activity of a reporter protein is the signal.
In the case of `O=C(Nc1cc(C(F)(F)F)ccc1N1CCC(C(F)(F)F)CC1)c1cc(Cl)ccc1O` [compound 112], the “Inhibitory rate against NF-κB activation (%)” value (“Inhibitory rate … (%)” below) is reported as 96.5%.

`O=C(Nc1cc(C(F)(F)F)ccc1OCC(F)(F)F)c1cc(Cl)ccc1O` [compound 113]: the “Inhibitory rate … (%)” value was determined as 90.5%.

Regarding `Cc1cc(Oc2ccc(C(F)(F)F)cc2NC(=O)c2cc(Cl)ccc2O)cc(C)c1Cl` [compound 115], the “Inhibitory rate … (%)” value was determined as 90.7%.

Take `O=C(Nc1cc(C(F)(F)F)ccc1N1CCCCC1)c1cc(Cl)ccc1O` [compound 116]: the “Inhibitory rate … (%)” value worked out at 90.0%.

With `Cc1ccc(Oc2ccc(C(F)(F)F)cc2NC(=O)c2cc(Cl)ccc2O)cc1` [compound 117], the “Inhibitory rate … (%)” value stood at 92.8%.

With `O=C(Nc1cc(C(F)(F)F)ccc1Oc1ccc(Cl)cc1)c1cc(Cl)ccc1O` [compound 118], the “Inhibitory rate … (%)” value amounted to 95.0%.

As to `O=C(Nc1cc(C(F)(F)F)ccc1Cl)c1cc(Cl)cnc1O` [compound 119], the “Inhibitory rate … (%)” value was determined as 85.4%.

Regarding `CC(=O)Oc1ccccc1C(=O)Nc1cc(Cl)cc(Cl)c1` [compound 121], the “Inhibitory rate … (%)” value is listed as 92.9%.

Turning to `O=C(Nc1cc(F)cc(F)c1)c1cc(Br)ccc1O` [compound 123], the “Inhibitory rate … (%)” value was 91.8%.

On to `O=C(Nc1cc(Cl)cc(Cl)c1)c1cc(Br)cc(Br)c1O` [compound 128], for which the “Inhibitory rate … (%)” value was 91.4%.

Turning to `Cc1ccc(O)c(C(=O)Nc2cc(Cl)cc(Cl)c2)c1` [compound 131], the “Inhibitory rate … (%)” value is 49.1%.

In the case of `O=C(Nc1cc([N+](=O)[O-])cc([N+](=O)[O-])c1)c1cc(Br)ccc1O` [compound 133], the “Inhibitory rate … (%)” value amounted to 91.0%.

For the compound `CC(C)(C)c1ccc(C(C)(C)C)c(NC(=O)c2cc(Cl)ccc2O)c1` [compound 134], the “Inhibitory rate … (%)” value was 89.1%.

In the case of `COc1ccc(C(C)(C)C)cc1NC(=O)c1cc(Cl)ccc1OC(C)=O` [compound 136], the “Inhibitory rate … (%)” value is 91.0%.

On to `Cc1cc(C)cc(NC(=O)c2cc(Br)ccc2O)c1` [compound 137], for which the “Inhibitory rate … (%)” value came out at 86.3%.

For `CC(=O)Oc1ccc(Cl)cc1C(=O)Nc1cc(C(C)(C)C)cc(C(C)(C)C)c1` [compound 139], the “Inhibitory rate … (%)” value is on record as 90.8%.

With `CC(C)(C)c1cc(NC(=O)c2cc(Br)ccc2O)cc(C(C)(C)C)c1` [compound 140], the “Inhibitory rate … (%)” value came to 70.9%.

With `COc1ccc(-c2ccccc2)cc1NC(=O)c1cc(Cl)ccc1O` [compound 141], the “Inhibitory rate … (%)” value came out at 82.4%.

`COc1ccc(OC)c(NC(=O)c2cc(Br)ccc2O)c1` [compound 142]: the “Inhibitory rate … (%)” value turned out to be 32.4%.

For `COc1cc(NC(=O)c2cc(Br)ccc2O)cc(OC)c1` [compound 143], the “Inhibitory rate … (%)” value turned out to be 38.3%.

In the case of `CC(C)(C)c1cc(NC(=O)c2cc([N+](=O)[O-])ccc2O)cc(C(C)(C)C)c1` [compound 146], the “Inhibitory rate … (%)” value came to 91.2%.

In the case of `Cc1ccc(O)c(C(=O)Nc2cc(C(C)(C)C)cc(C(C)(C)C)c2)c1` [compound 147], the “Inhibitory rate … (%)” value is recorded as 38.9%.

The experiment is the same for the next values; noted with them: Drug concentration at 10 μg/mL; HepG2, TNF-α 40 ng/ml, 4 hours.
As to `O=C(Nc1cc(C(F)(F)F)ccc1N1CCC(C(F)(F)F)CC1)c1cc(Cl)ccc1O` [compound 112], the “Inhibitory rate … (%)” value came out at 95.7%.

As to `O=C(Nc1cc(C(F)(F)F)ccc1OCC(F)(F)F)c1cc(Cl)ccc1O` [compound 113], the “Inhibitory rate … (%)” value was 96.2%.

`Cc1cc(Oc2ccc(C(F)(F)F)cc2NC(=O)c2cc(Cl)ccc2O)cc(C)c1Cl` [compound 115]: the “Inhibitory rate … (%)” value worked out at 98.4%.

In the case of `O=C(Nc1cc(C(F)(F)F)ccc1N1CCCCC1)c1cc(Cl)ccc1O` [compound 116], the “Inhibitory rate … (%)” value was determined as 97.3%.

Turning to `Cc1ccc(Oc2ccc(C(F)(F)F)cc2NC(=O)c2cc(Cl)ccc2O)cc1` [compound 117], the “Inhibitory rate … (%)” value was found to be 92.6%.

`O=C(Nc1cc(C(F)(F)F)ccc1Oc1ccc(Cl)cc1)c1cc(Cl)ccc1O` [compound 118]: the “Inhibitory rate … (%)” value was found to be 99.5%.

Take `O=C(Nc1cc(C(F)(F)F)ccc1Cl)c1cc(Cl)cnc1O` [compound 119]: the “Inhibitory rate … (%)” value was determined as 86.9%.

Take `CC(=O)Oc1ccccc1C(=O)Nc1cc(Cl)cc(Cl)c1` [compound 121]: the “Inhibitory rate … (%)” value turned out to be 95.5%.

Take `O=C(Nc1cc(F)cc(F)c1)c1cc(Br)ccc1O` [compound 123]: the “Inhibitory rate … (%)” value amounted to 96.8%.

With `O=C(Nc1cc(Cl)cc(Cl)c1)c1cc(Br)cc(Br)c1O` [compound 128], the “Inhibitory rate … (%)” value was 95.1%.

In the case of `Cc1ccc(O)c(C(=O)Nc2cc(Cl)cc(Cl)c2)c1` [compound 131], the “Inhibitory rate … (%)” value was determined as 88.7%.

`O=C(Nc1cc([N+](=O)[O-])cc([N+](=O)[O-])c1)c1cc(Br)ccc1O` [compound 133]: the “Inhibitory rate … (%)” value was 95.6%.

As for `CC(C)(C)c1ccc(C(C)(C)C)c(NC(=O)c2cc(Cl)ccc2O)c1` [compound 134], the “Inhibitory rate … (%)” value is given as 96.3%.

On to `COc1ccc(C(C)(C)C)cc1NC(=O)c1cc(Cl)ccc1OC(C)=O` [compound 136], for which the “Inhibitory rate … (%)” value worked out at 99.4%.

In the case of `Cc1cc(C)cc(NC(=O)c2cc(Br)ccc2O)c1` [compound 137], the “Inhibitory rate … (%)” value was 92.6%.

Take `CC(=O)Oc1ccc(Cl)cc1C(=O)Nc1cc(C(C)(C)C)cc(C(C)(C)C)c1` [compound 139]: the “Inhibitory rate … (%)” value amounted to 94.7%.

For the compound `CC(C)(C)c1cc(NC(=O)c2cc(Br)ccc2O)cc(C(C)(C)C)c1` [compound 140], the “Inhibitory rate … (%)” value is given as 82.0%.

As for `COc1ccc(-c2ccccc2)cc1NC(=O)c1cc(Cl)ccc1O` [compound 141], the “Inhibitory rate … (%)” value was found to be 97.9%.

For the compound `COc1ccc(OC)c(NC(=O)c2cc(Br)ccc2O)c1` [compound 142], the “Inhibitory rate … (%)” value amounted to 95.7%.

For the compound `COc1cc(NC(=O)c2cc(Br)ccc2O)cc(OC)c1` [compound 143], the “Inhibitory rate … (%)” value is recorded as 96.8%.

For `CC(C)(C)c1cc(NC(=O)c2cc([N+](=O)[O-])ccc2O)cc(C(C)(C)C)c1` [compound 146], the “Inhibitory rate … (%)” value turned out to be 98.5%.

Take `Cc1ccc(O)c(C(=O)Nc2cc(C(C)(C)C)cc(C(C)(C)C)c2)c1` [compound 147]: the “Inhibitory rate … (%)” value is listed as 91.0%.
